Test [1] concerns mice treated with cisplatin. The class given is in vivo, mouse. Conditions: single dose PD0332991 150 mg/kg oral gavage with cisplatin 15 mg/kg IP; 72 hours post treatment. As for the experimental part:
FIG. 7: CDK4/6 inhibition protects kidney function in mice treated with cisplatin. Cohorts of mice were treated with cisplatin (10 mg/kg IP) alone (squares), PD0332991 (150 mg/kg PO) alone (diamonds) or immediately prior to cisplatin (10 mg/kg) (triangles). Kidney function was measured at day 7 by quantification of blood urea nitrogen (BUN) in mg/dL and serum creatinine (Serum Cr) in mg/dL. Data represents the mean of 6 animals per cohort +/−standard error of the mean.
To determine if CDK4/6 inhibition around the time of DNA damage would protect renal function, mice were treated with cisplatin, a known causative agent of renal tubular damage in humans. Mice were treated with PD0332991 150 mg/kg or vehicle control by oral gavage and then received a single dose of cisplatin 15 mg/kg by IP injection. 72 hours post treatment mice were euthanized and blood was collected by cardiac puncture for BUN (blood urea nitrogen) and serum creatinine (SrCr) analysis. Serum BUN and SrCr are common markers of renal function and serum levels quickly elevated when kidney function has been acutely compromised.

Test [2] has as its system H417 small cell lung cancer cell line (intact RB). Description: SCLC cell proliferation, WST-1, RB-intact line. Conditions: 100 nM. The class given is cell-based. The protocol: FIG. 8: CDK4/6 inhibition potentiates proliferation of Rb deficient cells. […] Cell proliferation was assessed using WST-1 reagent. Each data point represents the mean of four replicates +/−SEM. CDK4/6 inhibition increases cell proliferation of RB-deficient cell lines.
Primary normal human renal proximal epithelial cells (American Type Culture Collection (ATCC), Manassas, Va., United States of America) were cultured in renal epithelial cell basal media supplemented with renal epithelial cell growth kit according to the manufacturer's recommendations. […] For the γH2AX assay, cells were fixed, permeabilized, and stained with anti-γH2AX as per γH2AX Flow Kit (Millipore, Billerica, Mass., United States of America). γH2AX levels were assessed by flow cytometry. Cell proliferation was assessed by seeding 1×10^3 cells per well in a 96-well tissue culture plate in 100 μL of growth medium. […] At the end of the recovery period, cell number was quantified using CellTiter-Glo® (Promega, Fitchburg, Wis., United States of America) or WST-1 reagent (TaKaRa Bio USA, Madison, Wis., United States of America). Cellular cytotoxicity was assessed using the TOXILIGHT™ Bioassay kit (Lonza, Basel, Switzerland) which measures cytolysis by quantifying the release of Adenylate Kinase into the culture media. […] 100 μL of TOXILIGHT™ reagent is added and incubated for 5 minutes and read in a luminometer at 1 second/well. […]
On the technique in general: Formazan colour is commonly taken as a measure of viable cells.

For test [3], the system named is murine memory and naive T cells. The test is described as follows: Homeostatic T cell proliferation in mice (BrdU incorporation, Ki67). The class given is in vivo, mouse. As for the experimental part:
FIG. 11A: Acute inhibition of CDK4/6 selectively suppresses memory T cell homeostatic proliferation in mice. Mice were treated with PD0332991 (150 mg/kg by oral gavage). Proliferation of T-cells were assessed using BrdU and flow cytometry.
Animals were treated with CDK4/6 inhibitor (PD0332991, open bars) or vehicle (shaded bars) for 24 hours and euthanized. Splenocytes were isolated and stained for B and T cell markers. After gating on appropriate populations, Ki67 staining was performed as an indicator of proliferation and S-phase. Error bars show +/−SEM.
(§1) Acute, pharmacologic inhibition of CDK4/6 suppresses lymphocyte proliferation with the most pronounced effect on memory T cell homeostatic proliferation and germinal center formation in mice. To determine whether inhibiting CDK4/6 affects memory cell generation and maintenance, mice were treated with selective CDK4/6 inhibitors, PD 0332991 or an unrelated selective CDK4/6 inhibitor, 2BrIC. 2BrIC was synthesized by OTAVA Chemicals (Kiev, Ukraine) and can be prepared according to methods described in Zhu et al., J. Med. Chem. 46, 2027-2030 (2003).
(In general: Uptake of a labelled nucleoside into DNA is a usual measure of proliferation.)

Test [4] relates to germinal center formation. Description: Germinal center formation in mice (Ki67 immunohistochemistry). In kind it is in vivo, mouse. Conditions: 150 mg/kg by oral gavage. As for the experimental part: Mice were treated with PD0332991 (150 mg/kg by oral gavage). Germinal center formation was assessed by Ki67 immunohistochemistry.
as §1
Cohorts of wild type mice were treated with vehicle or a CDK4/6 inhibitor as in FIG. 11. […] Unstimulated mice were treated for 24 hours with PD0332991 and homeostatic B cell proliferation measured by Ki67 staining after appropriate sorting. Similar results were obtained using BrdU incorporation to measure splenic B cell proliferation. Similar experiments were undertaken in human cells with B cell receptor stimulation as described in FIG. 12.

As to `CC(=O)c1c(C)c2cnc(Nc3ccc(N4CCNCC4)cn3)nc2n(C2CCCC2)c1=O` [PD0332991, 6-acetyl-8-cyclopentyl-5-methyl-2-(5-piperazin-1-yl-pyridin-2-ylamino)-8H-pyrido-[2,3-d]-pyrimidin-7-one], the “protection of renal function (BUN and SrCr)” value in test [1] is “abrogate the cisplatin-induced nephrotoxicity”. In test [2], the “cell proliferation (WST-1) vs DMSO” value was “decreased”. The “in vivo BrdU incorporation of CD4+ and CD8+ murine T cells” value in test [3] (150 mg/kg by oral gavage) is given as “greatest effects seen in the CD44+CD25+ memory cells”. For the same compound, the “homeostatic proliferation of memory vs naive T cells (BrdU incorporation, Ki67 expression)” value in test [3] (murine cells, acute inhibition) is listed as “more significant decrease in homeostatic proliferation of memory T cells than naive T cells”. Further, the “germinal center formation (Ki67)” value in test [4] was “selectively suppresses germinal center formation”.

These data come from patent US9616062B2, “Cyclin dependent kinase inhibitors and methods of use” (priority 2009, dated 2017).
